Tests used:
Type in all cases: cell-based
BaF3_HER2WT cells = BaF3_HER2WT cells (Homo sapiens, UniProt P04626); assay: Cell growth inhibition assay (CellTiterGlo), BaF3_HER2WT; conditions: 3-day treatment, CellTiterGlo, read-out: Cell growth inhibition activity, HER2 WT
BaF3_HER2YVMA cells = BaF3_HER2YVMA cells (Homo sapiens, UniProt P04626, DUP772-775, cells depend on it); assay: Cell growth inhibition assay (CellTiterGlo), BaF3_HER2YVMA; conditions: 3-day treatment, CellTiterGlo, read-out: Cell growth inhibition activity, HER2 - YVMA
BaF3_HER2YVMA cells, sequence (P04626 with tags, fused parts or gaps DUP772-775): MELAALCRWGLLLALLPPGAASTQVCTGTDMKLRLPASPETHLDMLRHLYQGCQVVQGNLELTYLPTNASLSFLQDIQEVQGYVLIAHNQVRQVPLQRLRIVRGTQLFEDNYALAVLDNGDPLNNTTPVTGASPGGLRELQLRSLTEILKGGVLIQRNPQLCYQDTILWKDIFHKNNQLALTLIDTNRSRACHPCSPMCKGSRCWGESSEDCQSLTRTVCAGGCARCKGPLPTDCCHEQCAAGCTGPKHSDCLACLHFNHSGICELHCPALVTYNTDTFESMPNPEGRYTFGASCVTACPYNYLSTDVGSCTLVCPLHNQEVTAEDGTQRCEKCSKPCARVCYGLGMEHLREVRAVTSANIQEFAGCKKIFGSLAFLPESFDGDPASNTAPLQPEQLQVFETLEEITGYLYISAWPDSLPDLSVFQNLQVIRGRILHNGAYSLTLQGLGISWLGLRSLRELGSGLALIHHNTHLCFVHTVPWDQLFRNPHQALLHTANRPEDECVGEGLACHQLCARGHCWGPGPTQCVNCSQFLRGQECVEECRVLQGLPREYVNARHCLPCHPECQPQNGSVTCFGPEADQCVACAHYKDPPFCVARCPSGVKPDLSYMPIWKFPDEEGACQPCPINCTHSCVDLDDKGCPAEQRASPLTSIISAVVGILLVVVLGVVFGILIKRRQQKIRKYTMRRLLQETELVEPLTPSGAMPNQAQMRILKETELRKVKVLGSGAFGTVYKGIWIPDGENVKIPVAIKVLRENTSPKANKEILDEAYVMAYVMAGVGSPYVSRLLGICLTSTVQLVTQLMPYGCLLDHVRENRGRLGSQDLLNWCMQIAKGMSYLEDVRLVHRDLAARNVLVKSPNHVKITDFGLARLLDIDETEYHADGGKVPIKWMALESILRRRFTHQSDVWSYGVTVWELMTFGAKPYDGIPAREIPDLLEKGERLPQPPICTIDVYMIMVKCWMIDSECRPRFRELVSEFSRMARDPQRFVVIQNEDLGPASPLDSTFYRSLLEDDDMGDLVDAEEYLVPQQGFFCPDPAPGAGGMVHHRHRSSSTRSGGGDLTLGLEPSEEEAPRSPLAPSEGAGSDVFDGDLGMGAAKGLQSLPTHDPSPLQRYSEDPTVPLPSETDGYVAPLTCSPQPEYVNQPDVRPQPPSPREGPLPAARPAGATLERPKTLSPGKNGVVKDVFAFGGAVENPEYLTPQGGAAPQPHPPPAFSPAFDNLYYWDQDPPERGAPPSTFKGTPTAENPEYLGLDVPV

BaF3_EGFRWT cells = BaF3_EGFRWT cells (Homo sapiens, UniProt P00533); assay: Cell growth inhibition assay (CellTiterGlo), BaF3_EGFRWT; conditions: 3-day treatment, CellTiterGlo, read-out: Cell growth inhibition activity, EGFR WT
BaF3_EGFRWT cells, sequence (P00533 whole entry, change not shown): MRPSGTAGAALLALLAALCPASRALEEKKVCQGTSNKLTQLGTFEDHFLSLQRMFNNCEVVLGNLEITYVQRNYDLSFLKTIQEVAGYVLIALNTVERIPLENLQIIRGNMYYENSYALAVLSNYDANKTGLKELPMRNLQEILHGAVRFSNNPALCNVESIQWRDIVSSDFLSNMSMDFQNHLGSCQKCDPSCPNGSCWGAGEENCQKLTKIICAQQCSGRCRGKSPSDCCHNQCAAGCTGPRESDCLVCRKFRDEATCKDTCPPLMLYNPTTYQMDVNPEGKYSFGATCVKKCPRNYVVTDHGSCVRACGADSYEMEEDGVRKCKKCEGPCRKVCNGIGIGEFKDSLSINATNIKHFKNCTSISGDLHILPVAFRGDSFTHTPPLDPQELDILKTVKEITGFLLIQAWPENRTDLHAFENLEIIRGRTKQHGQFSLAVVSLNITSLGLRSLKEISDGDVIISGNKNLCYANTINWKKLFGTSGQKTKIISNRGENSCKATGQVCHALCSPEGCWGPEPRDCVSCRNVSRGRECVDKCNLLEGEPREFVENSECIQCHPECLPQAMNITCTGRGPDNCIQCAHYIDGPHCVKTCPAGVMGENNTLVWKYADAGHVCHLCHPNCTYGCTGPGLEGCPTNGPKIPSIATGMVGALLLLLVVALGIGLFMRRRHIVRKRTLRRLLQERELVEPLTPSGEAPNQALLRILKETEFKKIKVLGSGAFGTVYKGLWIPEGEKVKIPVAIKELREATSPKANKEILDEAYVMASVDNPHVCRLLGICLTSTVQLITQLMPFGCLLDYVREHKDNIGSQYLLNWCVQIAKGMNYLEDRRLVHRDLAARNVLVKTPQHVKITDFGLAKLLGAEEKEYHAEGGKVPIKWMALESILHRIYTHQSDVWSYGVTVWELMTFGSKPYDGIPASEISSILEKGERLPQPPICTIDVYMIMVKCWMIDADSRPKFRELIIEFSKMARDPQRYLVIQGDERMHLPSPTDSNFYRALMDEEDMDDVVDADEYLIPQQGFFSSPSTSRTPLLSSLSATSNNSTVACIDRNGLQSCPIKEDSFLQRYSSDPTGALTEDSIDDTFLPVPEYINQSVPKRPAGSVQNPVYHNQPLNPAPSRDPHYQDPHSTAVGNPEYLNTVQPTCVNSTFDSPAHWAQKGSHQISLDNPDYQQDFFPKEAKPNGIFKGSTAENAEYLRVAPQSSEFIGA

BaF3_HER2WT cells, sequence (P04626 whole entry, change not shown): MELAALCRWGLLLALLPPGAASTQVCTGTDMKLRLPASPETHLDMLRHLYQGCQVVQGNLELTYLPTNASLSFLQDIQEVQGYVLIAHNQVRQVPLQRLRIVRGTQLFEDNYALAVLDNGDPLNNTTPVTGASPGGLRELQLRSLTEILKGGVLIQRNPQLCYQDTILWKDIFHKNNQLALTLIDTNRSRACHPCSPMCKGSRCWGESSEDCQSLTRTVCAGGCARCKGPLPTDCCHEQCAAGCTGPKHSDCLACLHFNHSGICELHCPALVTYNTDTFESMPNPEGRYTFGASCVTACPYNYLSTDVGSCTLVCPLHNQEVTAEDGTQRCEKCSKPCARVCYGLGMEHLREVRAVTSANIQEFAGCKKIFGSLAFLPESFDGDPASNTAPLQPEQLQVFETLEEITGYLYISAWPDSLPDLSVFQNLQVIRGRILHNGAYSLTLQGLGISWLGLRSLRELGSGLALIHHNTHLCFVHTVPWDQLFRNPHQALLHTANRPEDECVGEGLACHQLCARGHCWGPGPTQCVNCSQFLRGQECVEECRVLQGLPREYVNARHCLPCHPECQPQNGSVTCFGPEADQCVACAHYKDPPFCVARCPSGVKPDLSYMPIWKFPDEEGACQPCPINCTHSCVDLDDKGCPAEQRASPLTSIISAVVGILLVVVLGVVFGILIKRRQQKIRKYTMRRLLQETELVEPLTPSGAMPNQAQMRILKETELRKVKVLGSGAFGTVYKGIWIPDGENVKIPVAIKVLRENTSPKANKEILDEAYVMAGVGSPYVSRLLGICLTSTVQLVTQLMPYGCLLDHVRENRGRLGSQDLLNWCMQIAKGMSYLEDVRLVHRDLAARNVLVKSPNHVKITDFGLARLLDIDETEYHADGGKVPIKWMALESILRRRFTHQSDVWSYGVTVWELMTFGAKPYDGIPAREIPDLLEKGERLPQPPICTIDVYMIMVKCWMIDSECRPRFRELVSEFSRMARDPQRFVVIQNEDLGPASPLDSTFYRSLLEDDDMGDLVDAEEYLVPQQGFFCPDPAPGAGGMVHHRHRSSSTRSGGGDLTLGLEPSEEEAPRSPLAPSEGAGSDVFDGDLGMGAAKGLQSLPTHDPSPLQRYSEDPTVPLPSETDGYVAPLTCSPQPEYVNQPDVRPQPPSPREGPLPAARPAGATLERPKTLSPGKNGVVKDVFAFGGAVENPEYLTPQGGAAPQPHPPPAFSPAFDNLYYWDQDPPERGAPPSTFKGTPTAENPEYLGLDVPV

## Cc1cc(Nc2ncnn3ccc(C4CN(C(=O)/C=C/C5CCCN5C)C4)c23)ccc1Oc1ccn2ncnc2c1 (stereo not drawn) [Example 66, (E)-1-(3-(4-((4-([1,2,4]triazolo[1,5-a]pyridin-7-yloxy)-3-methylphenyl)amino)pyrrolo[2,1-f][1,2,4]triazin-5-yl)azetidin-1-yl)-3-(1-methylpyrrolidin-2-yl)prop-2-en-1-one]
BaF3_HER2WT cells
  GI50: < 200 nM
BaF3_HER2YVMA cells
  GI50: < 200 nM
BaF3_EGFRWT cells
  GI50: 1500 to 5000 nM

## C=C(CN(C)C)C(=O)N1CC(c2ccn3ncnc(Nc4ccc(Oc5ccc6c(c5)ncn6C)c(C)c4)c23)C1 [Example 67, 2-((dimethylamino)methyl)-1-(3-(4-((3-methyl-4-((1-methyl-1H-benzo[d]imidazol-5-yl)oxy)phenyl)amino)pyrrolo[2,1-f][1,2,4]triazin-5-yl)azetidin-1-yl)prop-2-en-1-one]
BaF3_HER2WT cells
  GI50: < 200 nM
BaF3_HER2YVMA cells
  GI50: < 200 nM
BaF3_EGFRWT cells
  GI50: 500 to 1500 nM

## Cc1cc(Nc2ncnn3ccc(N4CCCC(N(C)C(=O)/C=C/CN(C)C)C4)c23)ccc1Oc1ccn2ncnc2c1 (stereo not drawn) [Example 68, (E)-N-(1-(4-((4-([1,2,4]triazolo[1,5-a]pyridin-7-yloxy)-3-methylphenyl)amino)pyrrolo[2,1-f][1,2,4]triazin-5-yl)piperidin-3-yl)-4-(dimethylamino)-N-methylbut-2-enamide]
BaF3_HER2WT cells
  GI50: < 200 nM
BaF3_HER2YVMA cells
  GI50: < 200 nM
BaF3_EGFRWT cells
  GI50: 1500 to 5000 nM

## C=CC(=O)N(C)C1CCCN(c2ccn3ncnc(Nc4ccc(Oc5ccn6ncnc6c5)c(C)c4)c23)C1 (stereo not drawn) [Example 69, N-(1-(4-((4-([1,2,4]triazolo[1,5-a]pyridin-7-yloxy)-3-methylphenyl)amino)pyrrolo[2,1-f][1,2,4]triazin-5-yl)piperidin-3-yl)-N-methylacrylamide]
BaF3_HER2WT cells
  GI50: < 200 nM
BaF3_HER2YVMA cells
  GI50: 200 to 500 nM
BaF3_EGFRWT cells
  GI50: 1500 to 5000 nM

## Cc1cc(Nc2ncnn3ccc(N4CCC(N(C)C(=O)/C=C/CN(C)C)C4)c23)ccc1Oc1ccn2ncnc2c1 (stereo not drawn) [Example 70, (E)-N-(1-(4-((4-([1,2,4]triazolo[1,5-a]pyridin-7-yloxy)-3-methylphenyl)amino)pyrrolo[2,1-f][1,2,4]triazin-5-yl)pyrrolidin-3-yl)-4-(dimethylamino)-N-methylbut-2-enamide]
BaF3_HER2WT cells
  GI50: < 200 nM
BaF3_HER2YVMA cells
  GI50: < 200 nM
BaF3_EGFRWT cells
  GI50: 1500 to 5000 nM

## Cc1cc(Nc2ncnn3ccc(N4CC(NC(=O)/C=C/CN(C)C)C4)c23)ccc1Oc1ccn2ncnc2c1 [Example 71, (E)-N-(1-(4-((4-([1,2,4]triazolo[1,5-a]pyridin-7-yloxy)-3-methylphenyl)amino)pyrrolo[2,1-f][1,2,4]triazin-5-yl)azetidin-3-yl)-4-(dimethylamino)but-2-enamide]
BaF3_HER2WT cells
  GI50: < 200 nM
BaF3_HER2YVMA cells
  GI50: 200 to 500 nM
BaF3_EGFRWT cells
  GI50: 1500 to 5000 nM

## C=CC(=O)N(C)C1CCN(c2ccn3ncnc(Nc4ccc(Oc5ccn6ncnc6c5)c(C)c4)c23)C1 (stereo not drawn) [Example 72, N-(1-(4-((4-([1,2,4]triazolo[1,5-a]pyridin-7-yloxy)-3-methylphenyl)amino)pyrrolo[2,1-f][1,2,4]triazin-5-yl)pyrrolidin-3-yl)-N-methylacrylamide]
BaF3_HER2WT cells
  GI50: < 200 nM
BaF3_HER2YVMA cells
  GI50: < 200 nM
BaF3_EGFRWT cells
  GI50: 1500 to 5000 nM

## Cc1cc(Nc2ncnn3ccc(N4CCC(N(C)C(=O)/C=C/CN(C)C)CC4)c23)ccc1Oc1ccn2ncnc2c1 [Example 73, (E)-N-(1-(4-((4-([1,2,4]triazolo[1,5-a]pyridin-7-yloxy)-3-methylphenyl)amino)pyrrolo[2,1-f][1,2,4]triazin-5-yl)piperidin-4-yl)-4-(dimethylamino)-N-methylbut-2-enamide]
BaF3_HER2WT cells
  GI50: < 200 nM
BaF3_HER2YVMA cells
  GI50: 500 to 1500 nM
BaF3_EGFRWT cells
  GI50: 1500 to 5000 nM

## C=CC(=O)N(C)C1CCN(c2ccn3ncnc(Nc4ccc(Oc5ccn6ncnc6c5)c(C)c4)c23)CC1 [Example 74, N-(1-(4-((4-([1,2,4]triazolo[1,5-a]pyridin-7-yloxy)-3-methylphenyl)amino)pyrrolo[2,1-f][1,2,4]triazin-5-yl)piperidin-4-yl)-N-methylacrylamide]
BaF3_HER2WT cells
  GI50: < 200 nM
BaF3_HER2YVMA cells
  GI50: 500 to 1500 nM
BaF3_EGFRWT cells
  GI50: 1500 to 5000 nM
